Measured values from patent US11986471B2, “Compounds and methods of use” (Tango Therapeutics, Inc., priority 2018, dated 2024).

How the values were obtained:
[1] = system: HAP1 MTAP-deleted; assay: SDMA in-cell western assay, HAP1 MTAP-deleted cell line; assay type: cell-based; settings: for IC50: Homo sapiens, HAP1 MTAP-deleted cell line; for MTAP Intact/Deleted Ratio: IC50 ratio HAP1 MTAP-intact / HAP1 MTAP-deleted
Method in brief: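 Symmetric dimethylarginine (SDMA) levels were measured by in-cell western in MTAP-null HAP1 cells, one half of an MTAP-isogenic pair whose partner line expresses endogenous MTAP. Compound potency is reported as IC50.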

[2] = biological target: T1, PRMT5 (Homo sapiens, UniProt O14744); assay: PRMT5 IC50 assay with no cofactor; assay type: biochemical
T1 construct: purchased Viva (custom protein)
Method in brief: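 Cofactor-free, SAM and MTA formats; IC50 μM; Ki = IC50/1.5 for SAM, IC50/13.5 for MTA.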

[3] = biological target: T1, PRMT5; assay: PRMT5 IC50 assay in the presence of MTA as cofactor; assay type: biochemical; settings: for IC50: PRMT5, MTA as cofactor
Method in brief: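 Each compound is tested on PRMT5 in the presence of SAM, of MTA, and without any cofactor. Ki values are then back-calculated using fixed factors of 1.5 (SAM) and 13.5 (MTA), and the two Ki values are compared as a ratio.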

[4] = biological target: T1, PRMT5; assay: PRMT5 IC50 assay in the presence of SAM as cofactor; assay type: biochemical
Method in brief: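 IC50 values were measured against human PRMT5 with SAM, with MTA, or with no cofactor. Ki was derived from IC50 as Ki=IC50/1.5 with SAM and Ki=IC50/13.5 with MTA, and the Ki(SAM)/Ki(MTA) ratio was then taken.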

[5] = system: HAP1 MTAP-intact; assay: SDMA in-cell western assay, HAP1 MTAP-intact cell line; assay type: cell-based; settings: Homo sapiens
Method in brief: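 Symmetric dimethylarginine (SDMA) levels were measured by in-cell western in an isogenic HAP1 pair, one expressing endogenous MTAP and one MTAP-null, and IC50 values were derived for each line. Compounds whose IC50 ratio between the lines is 3-fold or more are classed as MTAP-selective.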

[6] = ratio between Ki in the presence of SAM and Ki in the presence of MTA

T1 sequence (O14744 whole entry): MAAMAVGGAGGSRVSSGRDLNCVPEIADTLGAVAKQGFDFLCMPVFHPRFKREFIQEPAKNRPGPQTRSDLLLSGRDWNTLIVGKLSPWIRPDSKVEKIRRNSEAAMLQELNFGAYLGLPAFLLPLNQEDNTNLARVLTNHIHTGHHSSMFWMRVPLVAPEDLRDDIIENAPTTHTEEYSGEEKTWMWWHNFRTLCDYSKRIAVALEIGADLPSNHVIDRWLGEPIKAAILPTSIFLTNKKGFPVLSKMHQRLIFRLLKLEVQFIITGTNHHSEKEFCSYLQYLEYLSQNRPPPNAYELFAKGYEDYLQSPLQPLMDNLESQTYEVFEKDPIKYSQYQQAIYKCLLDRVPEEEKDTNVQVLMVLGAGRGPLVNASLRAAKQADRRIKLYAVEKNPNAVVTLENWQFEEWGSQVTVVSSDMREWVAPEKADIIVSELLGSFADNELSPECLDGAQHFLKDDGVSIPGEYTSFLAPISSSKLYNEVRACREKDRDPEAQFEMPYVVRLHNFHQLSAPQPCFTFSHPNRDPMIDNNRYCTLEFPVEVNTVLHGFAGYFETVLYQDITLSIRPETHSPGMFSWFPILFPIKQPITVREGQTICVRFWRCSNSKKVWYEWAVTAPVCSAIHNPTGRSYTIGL
T1 sequence (Q9BQA1 whole entry partner): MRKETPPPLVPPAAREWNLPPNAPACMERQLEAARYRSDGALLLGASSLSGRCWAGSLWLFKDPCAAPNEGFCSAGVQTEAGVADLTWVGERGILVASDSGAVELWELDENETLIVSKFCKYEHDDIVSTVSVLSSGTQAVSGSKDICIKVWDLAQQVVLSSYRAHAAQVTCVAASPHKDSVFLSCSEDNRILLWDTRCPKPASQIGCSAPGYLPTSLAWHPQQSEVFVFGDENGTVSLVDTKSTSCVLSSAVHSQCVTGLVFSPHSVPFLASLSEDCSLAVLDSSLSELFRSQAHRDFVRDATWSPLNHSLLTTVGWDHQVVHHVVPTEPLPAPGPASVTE

Row | IC50 [1] [nM] | IC50 ([2]; read-out: No Co-factor IC50) [nM] | IC50 [3] [nM] | IC50 [4] [nM] | IC50 [5] [nM] | IC50 [2] [nM] | Compound | MTAP Intact/Deleted Ratio [1] | SAM/MTA Ratio [3, 6] | SAM/MTA Ratio ([3]; ratio between the Ki in the presence of SAM and the Ki in the presence of MTA)
1 | 1000 to 10000 | 500 to 5000 | 50 to 500 | 50 to 500 | ≥ 10000 | – | CC(=O)N1CC(Nc2cc(C(=O)NC[C@H](O)CN3CCc4c(ccc(OCc5cnco5)c4Cl)C3)nc(N3CCOCC3)n2)C1 [Compound 352, (S)-6-((1-acetylazetidin-3-yl)amino)-N-(3-(5-chloro-6-(oxazol-5-ylmethoxy)-3A-dihydroisoquinolin-2(1H)-yl)-2-hydroxypropyl)-2-morpholinopyrimidine-4-carboxamide] | C* (an IC50 ratio of less than 3 fold between the IC50 in the HAP1 MTAP-intact cell line and the HAP1 MTAP-deleted cell line) | A (a Ki ratio greater than or equal to 10 fold between the Ki in the presence of SAM and the Ki in the presence of MTA) | –
2 | < 1000 | ≥ 5000 | 50 to 500 | 500 to 5000 | 1000 to 10000 | – | O=C(NC[C@H](O)CN1CCc2cc(OCc3cnco3)ccc2C1)c1ccnc(Nc2cccnc2)c1 [Compound 399, (S)—N-(2-hydroxy-3-(6-(oxazol-5-ylmethoxy)-3N-dihydroisoquinolin-2(1H)-yl)propyl)-2-(pyridin-3-ylamino)isonicotinamide] | B* (an IC50 ratio greater than or equal to 3 fold but lower than 10 fold between the IC50 in the HAP1 MTAP-intact cell line and the HAP1 MTAP-deleted cell line) | A (a Ki ratio greater than or equal to 10 fold between the Ki in the presence of SAM and the Ki in the presence of MTA) | –
3 | 1000 to 10000 | – | 50 to 500 | 50 to 500 | ≥ 10000 | ≥ 5000 | COc1ccc(C(=O)N2CCc3cc(C(=O)NC[C@H](O)CN4CCc5c(ccc(OCc6ocnc6C)c5C)C4)ccc3C2)cc1 [Compound 533, N-[(2S)-2-hydroxy-3-{5-methyl-6-[(4-methyl-1,3-oxazol-5-yl)methoxy]-1,2,3,4-tetrahydroisoquinolin-2-yl}propyl]-2-(4-methoxybenzoyl)-1,2,3,4-tetrahydroisoquinoline-6-carboxamide] | C* (an IC50 ratio of less than 3 fold between the IC50 in the HAP1 MTAP-intact cell line and the HAP1 MTAP-deleted cell line) | – | A (a Ki ratio greater than or equal to 10 fold between the Ki in the presence of SAM and the Ki in the presence of MTA)
4 | 1000 to 10000 | ≥ 5000 | 50 to 500 | 500 to 5000 | < 1000 | – | O=C(NC[C@H](O)CN1CCc2cc(OCc3cnco3)cc(F)c2C1)c1ccnc(NC2CCC2)c1 [Compound 362, 2-(cyclobutylamino)-N-[(2S)-3-[8-fluoro-6-(oxazol-5-ylmethoxy)-3,4-dihydro-1H-isoquinolin-2-yl]-2-hydroxy-propyl]pyridine-4-carboxamide] | C* (an IC50 ratio of less than 3 fold between the IC50 in the HAP1 MTAP-intact cell line and the HAP1 MTAP-deleted cell line) | A (a Ki ratio greater than or equal to 10 fold between the Ki in the presence of SAM and the Ki in the presence of MTA) | –
5 | 1000 to 10000 | 500 to 5000 | 50 to 500 | 50 to 500 | ≥ 10000 | – | CC(C)C(=O)N1CCN(c2nc(NC3COC3)cc(C(=O)NC[C@H](O)CN3CCc4c(ccc(OCc5cnco5)c4Cl)C3)n2)CC1 [Compound 323, (S)—N-(3-(5-chloro-6-(oxazol-5-ylmethoxy)-3N-dihydroisoquinolin-2(1H)-yl)-2-hydroxypropyl)-2-(4-isobutyrylpiperazin-1-yl)-6-(oxetan-3-ylamino)pyrimidine-4-carboxamide] | B* (an IC50 ratio greater than or equal to 3 fold but lower than 10 fold between the IC50 in the HAP1 MTAP-intact cell line and the HAP1 MTAP-deleted cell line) | A (a Ki ratio greater than or equal to 10 fold between the Ki in the presence of SAM and the Ki in the presence of MTA) | –
